The values that follow come from patent publication US9695176B2, “Substituted imidazo[1,5-a]pyrazines as CGRP receptor antagonists” (BRISTOL-MYERS SQUIBB COMPANY, priority 2012, dated 2017).

As a reminder, the IC50 is the point on the concentration scale where inhibition reaches its midpoint. Read a low IC50 as greater potency in that assay.

Chain of Human CGRP Receptor (Q16602 23-461): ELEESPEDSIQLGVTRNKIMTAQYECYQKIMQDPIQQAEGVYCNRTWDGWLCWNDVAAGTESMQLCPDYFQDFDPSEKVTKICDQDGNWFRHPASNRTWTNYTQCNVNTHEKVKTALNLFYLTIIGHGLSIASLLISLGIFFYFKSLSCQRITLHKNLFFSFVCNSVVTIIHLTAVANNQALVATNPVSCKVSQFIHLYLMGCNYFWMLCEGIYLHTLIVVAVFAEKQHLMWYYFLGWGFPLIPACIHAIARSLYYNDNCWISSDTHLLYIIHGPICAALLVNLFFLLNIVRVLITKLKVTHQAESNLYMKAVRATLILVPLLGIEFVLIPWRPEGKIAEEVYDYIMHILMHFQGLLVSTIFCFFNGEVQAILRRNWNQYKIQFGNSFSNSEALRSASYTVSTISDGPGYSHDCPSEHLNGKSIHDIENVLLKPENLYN
Chain of Human CGRP Receptor (O60894 27-148): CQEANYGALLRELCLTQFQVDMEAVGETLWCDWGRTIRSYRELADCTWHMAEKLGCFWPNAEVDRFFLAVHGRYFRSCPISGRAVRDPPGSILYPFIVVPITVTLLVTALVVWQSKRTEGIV

The experiment concerns the target Human CGRP Receptor (Homo sapiens (Human), UniProt O60894+Q16602). The experiment in a line: Radioligand binding assay, [125I]-CGRP displacement on SK-N-MC membranes. The method, then: Tissue Culture. SK-N-MC cells were grown at 37° C. in 5% CO2 as a monolayer in medium consisting of MEM with Earle's salts and L-glutamine (Invitrogen) supplemented with 10% fetal bovine serum (Invitrogen).
Membrane Preparation. Crude membranes were prepared from SK-N-MC cells expressing CGRP receptors. […] The cells were transferred from plates to polypropylene tubes (16×100 mm) and homogenized using a polytron. Homogenates were centrifuged at 32,000×g for 30 min. The pellets were resuspended in cold hypotonic lysis buffer with 0.1% mammalian protease inhibitor cocktail (Sigma) and assayed for protein concentration. The SK-N-MC homogenate was aliquoted and stored at −80° C.
Radioligand Binding Assay. The compounds of invention were solubilized and carried through serial dilutions using 100% DMSO. Aliquots from the compound serial dilutions were further diluted 25 fold into assay buffer (50 mM Tris-Cl pH 7.5, 5 mM MgCl2, 0.005% Triton X-100) and transferred (volume 50 μl) into 96 well assay plates. […] SK-N-MC membranes were thawed, diluted in assay buffer with fresh 0.1% mammalian protease inhibitor cocktail (Sigma), and re-homogenized. SK-N-MC homogenate (7 μg/well) was added in a volume of 100 μl. The assay plates were then incubated at room temperature for 2 h. Assays were stopped by addition of excess cold wash buffer (50 mM Tris-Cl pH 7.5, 0.1% BSA) immediately followed by filtration over glass fiber filters (Whatman GF/B) previously soaked in 0.5% PEI. Non-specific binding was defined with 1 μM beta-CGRP (Bachem). Protein bound radioactivity was determined using a gamma or scintillation counter. […] All compounds of invention were evaluated in at least two separate experiments.
The molecule `Cc1cc(CC(OC(=O)N2CCC(c3cc4ccccc4[nH]c3=O)CC2)c2ncc3n2CCN(Cc2ccccc2)C3)cc2cn[nH]c12` (racemic) [Example 1, (±)-1-(7-Benzyl-5,6,7,8-tetrahydroimidazo[1,5-c]pyrazin-3-yl)-2-(7-methyl-1H-indazol-5-yl)ethyl 4-(2-oxo-1,2-dihydroquinolin-3-yl)piperidine-1-carboxylate] had an IC50 of 0.26 nM.
With `CCN1CCn2c(cnc2C(Cc2cc(C)c3[nH]ncc3c2)OC(=O)N2CCC(c3cc4ccccc4[nH]c3=O)CC2)C1` (racemic) [Example 2, (±)-1-(7-ethyl-5,6,7,8-tetrahydroimidazo[1,5-a]pyrazin-3-yl)-2-(7-methyl-1H-indazol-5-yl)ethyl 4-(2-oxo-1,2-dihydroquinolin-3-yl)piperidine-1-carboxylate] the figure was 1.7 nM.
Take `Cc1cc(CC(OC(=O)N2CCC(c3cc4ccccc4[nH]c3=O)CC2)c2ncc3n2CCNC3)cc2cn[nH]c12` (racemic) [Example 3, (±)-2-(7-methyl-1H-indazol-5-yl)-1-(5,6,7,8-tetrahydroimidazo[1,5-a]pyrazin-3-yl)ethyl 4-(2-oxo-1,2-dihydroquinolin-3-yl)piperidine-1-carboxylate]: the IC50 is 2.95 nM.
Consider `Cc1cc(CC(OC(=O)N2CCC(c3cc4ccccc4[nH]c3=O)CC2)c2ncc3n2CCN(C2CCCCC2)C3)cc2cn[nH]c12` (racemic) [Example 4, (±)-1-(7-Cyclohexyl-5,6,7,8-tetrahydroimidazo[1,5-a]pyrazin-3-yl)-2-(7-methyl-1H-indazol-5-yl)ethyl 4-(2-oxo-1,2-dihydroquinolin-3-yl)piperidine-1-carboxylate], for which the half-maximal inhibitory concentration (IC50) is 0.22 nM.
